Article PMC10522709, “Rational design and characterization of cell-selective antimicrobial peptides based on a bioactive peptide from Crocodylus siamensis hemoglobin” (Scientific Reports, 2023)
Ends that are not written are not given here.

Legend:
[1] = system: Bacillus subtilis (ATCC 6633); assay type: cell-based; conditions: ATCC 6633, 24 h
Protocol: (§1) Broth microdilution assays were performed as reported previously. In short, the bacteria including Escherichia coli (ATCC 25922), Klebsiella pneumoniae (ATCC 27736), Pseudomonas aeruginosa (ATCC 27853), Bacillus subtilis (ATCC 6633), Staphylococcus aureus (ATCC 25923) and Staphylococcus epidermidis (ATCC 12228) were grown in Nutrient broth to mid-log phase at 37 °C. The bacterial suspension (50 μL, concentration of 1 × 10^6 CFU/mL) was loaded into a well with serially diluted peptide (50 µL, final concentrations ranging from 0–200 μg/mL) in a sterile 96-well plate and incubated at 37 °C for 18 h. The optical density (OD) at 600 nm was measured using a microplate reader (ALLSHENG, Zhejiang, China) in order to determine the growth of the bacteria. The inhibition was estimated using the formula; %inhibition=OD600ofcontrol-OD600ofsample/OD600ofcontrol-OD600ofblank×100 where minimal inhibitory concentration (MIC) is defined as the minimum concentration that inhibited 90% of bacterial growth.
(§2) In order to evaluate the minimal bactericidal concentration (MBC)—the lowest concentration that terminates the growth of bacteria on an agar plate—of the peptide, co-culture medium (100 μL) from each well after the microdilution assay was spread on a nutrient agar plate. Plates were maintained at 37 °C for 24 h and the number of colonies formed was counted to evaluate antimicrobial activity.

[2] = system: Escherichia coli (ATCC 25922); assay type: cell-based; conditions: ATCC 25922, 24 h
Protocol: as §1, §2

[3] = system: Klebsiella pneumoniae (ATCC 27736); assay type: cell-based; conditions: ATCC 27736, 24 h
Protocol: as §1, §2

[4] = system: Pseudomonas aeruginosa (ATCC 27853); assay type: cell-based; conditions: ATCC 27853, 24 h
Protocol: as §1, §2

[5] = system: Staphylococcus aureus (ATCC 25923); assay type: cell-based; conditions: ATCC 25923, 24 h
Protocol: as §1, §2

[6] = system: Staphylococcus epidermidis (ATCC 12228); assay type: cell-based; conditions: ATCC 12228, 24 h
Protocol: as §1, §2

[7] = system: Bacillus subtilis (ATCC 6633); assay type: cell-based; conditions: ATCC 6633, 18 h
Protocol: as §1

[8] = system: Escherichia coli (ATCC 25922); assay type: cell-based; conditions: ATCC 25922, 18 h
Protocol: as §1

[9] = system: Klebsiella pneumoniae (ATCC 27736); assay type: cell-based; conditions: ATCC 27736, 18 h
Protocol: as §1

[10] = system: Pseudomonas aeruginosa (ATCC 27853); assay type: cell-based; conditions: ATCC 27853, 18 h
Protocol: as §1

[11] = system: Staphylococcus aureus (ATCC 25923); assay type: cell-based; conditions: ATCC 25923, 18 h
Protocol: as §1

[12] = system: Staphylococcus epidermidis (ATCC 12228); assay type: cell-based; conditions: ATCC 12228, 18 h
Protocol: as §1

[13] = system: human erythrocytes; assay type: cell-based; conditions: red cells of human, 1 h
Protocol: Human whole blood was obtained from Blood Transfusion Center Faculty of Medicine Khon Kaen University (ethical approval number HE601010). Fresh human erythrocytes were carefully mixed with PBS (1:3) and centrifuged at 1000 × g for 2 min. The supernatant was discarded and the cell pellet was resuspended to 2% w/v in PBS. 100 µL of the resuspended erythrocytes were incubated with the peptide (10 µL, final concentrations ranging from 12.5 to 100 μg/mL, two-fold serial dilution) at 37 °C for 1 h. After the treatment, the plate was centrifuged and the supernatant was taken to determine the optical density at 415 nm using a microplate reader (ALLSHENG, Zhejiang, China). The positive control for this assay was the addition of Triton X-100 (1% v/v), which causes 100% hemolysis. The negative control was cells treated with PBS buffer only. The hemolysis activity was estimated using the equation: %hemolysis=OD415ofsample/OD415ofTritonX-100treatedcontrol×100

[14] = system: EcoRI-digested Lambda (λ) DNA; test: Gel retardation assay; assay type: binding; conditions: 200 ng λ DNA, peptide 4, 6, 8, 16 µg/mL, 60 min, room temperature, 0.8% agarose gel
Protocol: DNA used for this test was Lambda (λ) DNA, which had been digested with EcoRI into fragments sized 21,226, 7421, 5804, 5643, 4878 and 3530 bp (Thermo Fisher Scientific, Waltham, MA, USA). The gel retardation assay was run by mixing 200 ng of λ DNA with different concentrations of IL15.3 at 1 × MIC (4 µg/mL), 2 × MIC (8 µg/mL), 4 × MIC (16 µg/mL) and MBC (6 µg/mL) of E. coli. The mixtures were incubated for 60 min at room temperature and subjected to electrophoresis on a 0.8% agarose gel. Gel was then stained with ViSafe Red gel stain (Vivantis, Selangor Darul Ehsan, Malaysia). Subsequently, DNA bands were photographed using G-box gel documentation (Syngene, USA).

IKHWKKVWKHAKKVL [IL15.3]
MBC [1]: 12 µg/mL | MBC [2]: 6 µg/mL | MBC [3]: 25 µg/mL | MBC [4]: 18 µg/mL | MBC [5]: 25 µg/mL | MBC [6]: 12 µg/mL | MIC [7]: 8 µg/mL | MIC [8]: 4 µg/mL | MIC [9]: 10 µg/mL | MIC [10]: 10 µg/mL | MIC [11]: 12 µg/mL | MIC [12]: 9 µg/mL | Hemolysis concentration50 (HC50) [13]: >2000 µg/mL | interaction with DNA (gel retardation) [14]: binds to λ DNA fragments
